Measured values from PMC8497620, “Structure and inhibition of Cryptococcus neoformans sterylglucosidase to develop antifungal agents” (Nature Communications, 2021).
Several values for one entry are separate records, joined by “and”; a condition that tells them apart may be missing. Equal entries are not always repeated.

Legend:
C. neoformans Sgl1 [1] = target: T1, C. neoformans Sgl1 (Cryptococcus neoformans var. grubii, UniProt J9W473); test: Kinetic evaluation of erg-glc and C6-NBD-GlcCer hydrolysis by Sgl1 (Triton X-100 mixed micelles, HPLC); assay type: biochemical; settings: for Km, Michaelis-Menten best-fit value / Vmax, Michaelis-Menten best-fit value, Turnover: source data Fig 1d; for KM: substrate of Sgl1, Triton X-100 mixed micelles, 37 °C
T1 sequence (J9W473 entry or part of it): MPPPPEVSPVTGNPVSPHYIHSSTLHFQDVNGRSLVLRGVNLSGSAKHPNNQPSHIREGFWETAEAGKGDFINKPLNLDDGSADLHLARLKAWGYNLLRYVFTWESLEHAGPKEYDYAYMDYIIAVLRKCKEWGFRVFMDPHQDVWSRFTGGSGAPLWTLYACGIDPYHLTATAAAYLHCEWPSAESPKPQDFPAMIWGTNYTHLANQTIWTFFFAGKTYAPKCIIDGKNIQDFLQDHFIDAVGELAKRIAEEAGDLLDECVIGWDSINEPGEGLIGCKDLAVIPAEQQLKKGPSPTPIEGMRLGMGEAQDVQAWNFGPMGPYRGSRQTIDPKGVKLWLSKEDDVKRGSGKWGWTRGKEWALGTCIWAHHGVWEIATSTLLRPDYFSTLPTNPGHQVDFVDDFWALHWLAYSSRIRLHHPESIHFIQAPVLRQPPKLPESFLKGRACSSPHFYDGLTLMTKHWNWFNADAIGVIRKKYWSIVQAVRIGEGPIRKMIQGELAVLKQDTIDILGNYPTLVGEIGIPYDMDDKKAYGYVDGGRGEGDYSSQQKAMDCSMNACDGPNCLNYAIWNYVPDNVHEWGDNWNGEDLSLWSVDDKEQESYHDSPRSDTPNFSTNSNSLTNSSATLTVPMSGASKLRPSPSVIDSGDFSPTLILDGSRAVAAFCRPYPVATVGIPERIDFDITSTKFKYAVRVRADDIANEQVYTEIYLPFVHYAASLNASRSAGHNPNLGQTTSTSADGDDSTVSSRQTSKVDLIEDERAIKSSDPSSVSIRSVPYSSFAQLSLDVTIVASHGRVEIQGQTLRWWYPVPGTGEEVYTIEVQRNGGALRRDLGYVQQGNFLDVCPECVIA
Experimental: A 50 μL volume of Cn Sgl1 wild type and 50 μL of mixed micelles of lipid and Triton X-100 in 50 mM Bis-Tris buffer with 150 mM NaCl, 5 mM βME, and 5 mM DTT were mixed and incubated at 37 °C for 10 min (erg-glc, Avanti Polar Lipids) and 1 h (C6-NBD-glcCer, Matreya). For the substrate erg-glc the amount of protein was 5 ng. 150 ng protein was used for reactions with C6-NBD-GlcCer. After the incubation period, each reaction was quenched with a 2:1 chloroform:methanol solution and the organic phase was collected and dried. Then, the lipid content was resuspended in 50 μL methanol and applied to HPLC (Agilent Technologies). Total erg-glc and ergosterol was detected using absorbance at 282 nm on a C-8 column with a flow rate of 0.5 ml/min in methanol/water 90:10 ratio buffered with 1 mM ammonium formate and 0.2% formic acid. A 85:15 ratio of the same eluent was used for C6-NBD-GlcCer and C6-NBD-ceramide monitoring the fluorescence at 470/530 nm excitation/emission. The total area of product was normalized by the total area of its respective substrate.

C. neoformans Sgl1 [2] = target: T1, C. neoformans Sgl1; test: Sgl1 inhibition with res-glp substrate (HTS, single-compound dose-response); assay type: biochemical; settings: res-glp as substrate (100 µM), primary screen; read-out: IC50 against Sgl1
Experimental: (§1) Resorufin-3β-D-glucopyranoside (res-glp, Sigma-Aldrich) enzyme kinetic assays were performed according to methods described by Urban et al.[16] with modifications. Reaction buffer contained 50 mM citric acid, 176 mM K2HPO4, pH 6, 0.01% Tween-20, and 10 mM sodium taurocholate. The reactions were carried out in black 96-well plates using 20 ng of enzyme with 100 μM res-glp substrate. In all, 10 μL/well of res-glp substrate was added to each well and the reaction was initiated by adding 20 μL enzyme (20 ng). After incubation at 37 °C for 30–40 min, the fluorescence was read at an excitation of 570 (±10) nm and an emission of 610 (±10) nm on a VersaMax™ Microplate Reader from Molecular Devices. A standard curve was prepared with serial dilutions of the free fluorophore, resorufin, in the same volume of assay buffer.
A ChemBridge DIVERSet-CL library (San Diego, CA) containing 50,000 compounds was screened to identify small molecules that inhibit C. neoformans Sgl1. The library was prepared in a 96-well plate format containing a cocktail of 10 compounds per well at 1 mM each in 100% DMSO. The cocktail plates were first diluted to 100 μM each (1:10 dilution in Dulbecco’s phosphate-buffered saline, DPBS) resulting in 10% DMSO. In order to screen the compound cocktails at […] in 1% DMSO in a final reaction volume of 30 μL an aliquot of 3 μL was added to 17 μL of buffer containing 20 ng of enzyme and the reaction was started adding 10 μL of 100 μM res-glp. A negative control without enzyme and positive controls with and without DMSO were prepared. The plates were incubated at 37 °C for 40 min.
The Z′-factor was used for the assessment of the efficiency of the HTS assay for each individual plate. Values greater than 0.5 has been considered as an indicator of an excellent screening assay quality.

[3] = tested on: human lung epithelial cancer cell line A549; settings: A549 cells, 24 h, MTT
Experimental: The cells were maintained in Dulbecco’s modified eagle medium containing 10% fetal bovine serum and 1% penicillin–streptomycin. At passage 11, 10^5 cells were transferred into each well of 96-well plates and cultured for 18–24 h for the cells to adhere to the well surface. After, the medium was removed and a fresh medium containing the selected compounds at a concentration range of 1–512 μM were added to the wells. Controls with equivalent serial concentrations of DMSO were also evaluated and compared with a control without DMSO. The plate was incubated at 37 °C with 5% CO2. After 24 h, the supernatant was removed and 50 μL of 5 mg/mL 3-(4,5-dimethylthiazol-2-yl)-2,5-diphenyltetrazoliumbromide (MTT) solution in phosphate-buffered saline (PBS) was added to each well. The plates were incubated for an additional 4 h and the formazan crystals formed inside the cell was dissolved by adding 50 μL DMSO.

C. neoformans Sgl1 [4] = test: Resorufin-3β-D-glucopyranoside enzyme kinetic assay and HTS assay parameters; assay type: biochemical, Cryptococcus neoformans; settings: for Picomol of resorufin produced: time 20 min, 8 replicates
Experimental: as §1, with “buffer. All reactions were linear with respect to time and protein concentration and the pH, temperature, and dimethyl sulfoxide (DMSO) optimal tolerance was verified.” for “buffer.”
Supplementary Figure 6. High-throughput screening assay parameters. a. Resorufin 3β-D-glucopyranoside (res-glp) hydrolysis by Sgl1 releases the fluorescent product resorufin and glucose. b. Detection linearity of the system. c. Temperature evaluation of Sgl1 activity (n=6). d.
Reaction dependence on pH (n=4). e. DMSO tolerance (n=6). f. Enzyme concentration linearity (n=4). The reaction is linear up to 0.4 pmol of Sgl1 in presence of the substrate res-glp (100 µM). Data presented as mean values +/- SD of 2-3 independent experiments performed in duplicate (c-f). g.Time linearity until 50 min (n=4). h. Eight substrate concentrations tested with 0.2 pmol of Sgl1 until 20 min. i. Kinetic curve of Sgl1 (n=4). Error bars represent standard deviation of four independent experiments performed in technical duplicates. j. Kinetic parameters of Sgl1 reaction with res-glp.
(1 picture or pasted object on this page, not shown here)

Structure (SMILES): CCCCCCCCCCCCCC=CC(O)C(COC1OC(CO)C(O)C(O)C1O)NC(=O)CCCCCNc1ccc([N+](=O)[O-])c2nonc12 (stereo not drawn) [C6-NBD-GlcCer, C6-NBD-glucosylceramide]
- Turnover (mol C6-NBD-Ceramide / sec/ mol enzyme) (C. neoformans Sgl1 [1]; 0.3 mol% C6-NBD-GlcCer): 0.0009 mol C6-NBD-Ceramide / sec/ mol enzyme and 0.0010 mol C6-NBD-Ceramide / sec/ mol enzyme
- Turnover (mol C6-NBD-Ceramide / sec/ mol enzyme) (C. neoformans Sgl1 [1]; 0.7 mol% C6-NBD-GlcCer): 0.0024 mol C6-NBD-Ceramide / sec/ mol enzyme and 0.0025 mol C6-NBD-Ceramide / sec/ mol enzyme
- Turnover (mol C6-NBD-Ceramide / sec/ mol enzyme) (C. neoformans Sgl1 [1]; 1.0 mol% C6-NBD-GlcCer): 0.0039 mol C6-NBD-Ceramide / sec/ mol enzyme and 0.0038 mol C6-NBD-Ceramide / sec/ mol enzyme
- Turnover (mol C6-NBD-Ceramide / sec/ mol enzyme) (C. neoformans Sgl1 [1]; 1.5 mol% C6-NBD-GlcCer): 0.0051 mol C6-NBD-Ceramide / sec/ mol enzyme
- Turnover (mol C6-NBD-Ceramide / sec/ mol enzyme) (C. neoformans Sgl1 [1]; 2.0 mol% C6-NBD-GlcCer): 0.0066 mol C6-NBD-Ceramide / sec/ mol enzyme and 0.0051 mol C6-NBD-Ceramide / sec/ mol enzyme
- Turnover (mol C6-NBD-Ceramide / sec/ mol enzyme) (C. neoformans Sgl1 [1]; 2.5 mol% C6-NBD-GlcCer): 0.0073 mol C6-NBD-Ceramide / sec/ mol enzyme and 0.0067 mol C6-NBD-Ceramide / sec/ mol enzyme
- Turnover (mol C6-NBD-Ceramide / sec/ mol enzyme) (C. neoformans Sgl1 [1]; 3.0 mol% C6-NBD-GlcCer): 0.0085 mol C6-NBD-Ceramide / sec/ mol enzyme and 0.0080 mol C6-NBD-Ceramide / sec/ mol enzyme
- Turnover (mol C6-NBD-Ceramide / sec/ mol enzyme) (C. neoformans Sgl1 [1]; 3.5 mol% C6-NBD-GlcCer): 0.0076 mol C6-NBD-Ceramide / sec/ mol enzyme and 0.0074 mol C6-NBD-Ceramide / sec/ mol enzyme
- Turnover (mol C6-NBD-Ceramide / sec/ mol enzyme) (C. neoformans Sgl1 [1]; 4.0 mol% C6-NBD-GlcCer): 0.0074 mol C6-NBD-Ceramide / sec/ mol enzyme and 0.0082 mol C6-NBD-Ceramide / sec/ mol enzyme
- Turnover (mol C6-NBD-Ceramide / sec/ mol enzyme) (C. neoformans Sgl1 [1]; 4.5 mol% C6-NBD-GlcCer): 0.0064 mol C6-NBD-Ceramide / sec/ mol enzyme and 0.0070 mol C6-NBD-Ceramide / sec/ mol enzyme
- Turnover (mol C6-NBD-Ceramide / sec/ mol enzyme) (C. neoformans Sgl1 [1]; 5.0 mol% C6-NBD-GlcCer): 0.0075 mol C6-NBD-Ceramide / sec/ mol enzyme and 0.0072 mol C6-NBD-Ceramide / sec/ mol enzyme
- Km, Michaelis-Menten best-fit value (C. neoformans Sgl1 [1]): 1.734 mol%
- Vmax, Michaelis-Menten best-fit value, Turnover (C. neoformans Sgl1 [1]): 0.01082 s⁻¹
- KM (C. neoformans Sgl1 [1]): 1.73 ± 0.37 mol%

Structure (SMILES): Cc1[nH]c2ccc(CNc3nccc(N)n3)cc2c1C [Hit 6]
- IC50 (C. neoformans Sgl1 [2]): 2000 nM
- LD50 (lethal dose 50) [3]: 181.3 µM

Structure (SMILES): Cc1ccsc1CN(CCN(C)C)Cc1ccc2nonc2c1 [Hit 10]
- LD50 (lethal dose 50) [3]: 301.8 µM

Structure (SMILES): O=c1ccc2nc3ccc(O[C@@H]4O[C@H](CO)[C@@H](O)[C@H](O)[C@H]4O)cc3oc-2c1 [Resorufin 3β-D-glp, resorufin-3β-D-glucopyranoside, reference compound]
- Turnover, min-1 (Mean) (C. neoformans Sgl1 [4]; 0.8 µM Resorufin 3β-D-glp): 0.1166 min⁻¹
- Turnover, min-1 (Mean) (C. neoformans Sgl1 [4]; 1.6 µM Resorufin 3β-D-glp): 0.2022 min⁻¹
- Turnover, min-1 (Mean) (C. neoformans Sgl1 [4]; 3.125 µM Resorufin 3β-D-glp): 0.2828 min⁻¹
- Turnover, min-1 (Mean) (C. neoformans Sgl1 [4]; 6.25 µM Resorufin 3β-D-glp): 0.5182 min⁻¹
- Turnover, min-1 (Mean) (C. neoformans Sgl1 [4]; 12.5 µM Resorufin 3β-D-glp): 0.7736 min⁻¹
- Turnover, min-1 (Mean) (C. neoformans Sgl1 [4]; 25 µM Resorufin 3β-D-glp): 1.399 min⁻¹
- Turnover, min-1 (Mean) (C. neoformans Sgl1 [4]; 50 µM Resorufin 3β-D-glp): 2.307 min⁻¹
- Turnover, min-1 (Mean) (C. neoformans Sgl1 [4]; 100 µM Resorufin 3β-D-glp): 3.899 min⁻¹
- Vmax, Michaelis-Menten best-fit value, Turnover (C. neoformans Sgl1 [4]; res-glp as Sgl1 substrate, source data Fig S6i): 9.522 min⁻¹
- Km (C. neoformans Sgl1 [4]; res-glp as Sgl1 substrate, source data Fig S6i, read-out: Km, Michaelis-Menten best-fit value): 147 µM

Structure (SMILES): CC(C)[C@@H](C)/C=C/[C@@H](C)[C@H]1CC[C@H]2C3=CC=C4C[C@@H](O[C@@H]5O[C@H](CO)[C@@H](O)[C@H](O)[C@H]5O)CC[C@]4(C)[C@H]3CC[C@]12C [erg-glc, ergosterol 3β-D-glucoside]
- Turnover (mol ergosterol / sec/ mol enzyme) (C. neoformans Sgl1 [1]; 0.07 mol% Erg-glc): 0.1064 mol ergosterol / sec/ mol enzyme and 0.1082 mol ergosterol / sec/ mol enzyme
- Turnover (mol ergosterol / sec/ mol enzyme) (C. neoformans Sgl1 [1]; 0.10 mol% Erg-glc): 0.1849 mol ergosterol / sec/ mol enzyme and 0.1742 mol ergosterol / sec/ mol enzyme
- Turnover (mol ergosterol / sec/ mol enzyme) (C. neoformans Sgl1 [1]; 0.20 mol% Erg-glc): 0.3045 mol ergosterol / sec/ mol enzyme and 0.2862 mol ergosterol / sec/ mol enzyme
- Turnover (mol ergosterol / sec/ mol enzyme) (C. neoformans Sgl1 [1]; 0.50 mol% Erg-glc): 0.4688 mol ergosterol / sec/ mol enzyme and 0.4091 mol ergosterol / sec/ mol enzyme
- Turnover (mol ergosterol / sec/ mol enzyme) (C. neoformans Sgl1 [1]; 0.90 mol% Erg-glc): 0.6080 mol ergosterol / sec/ mol enzyme and 0.5033 mol ergosterol / sec/ mol enzyme
- Turnover (mol ergosterol / sec/ mol enzyme) (C. neoformans Sgl1 [1]; 1.20 mol% Erg-glc): 0.5944 mol ergosterol / sec/ mol enzyme and 0.5189 mol ergosterol / sec/ mol enzyme
- Turnover (mol ergosterol / sec/ mol enzyme) (C. neoformans Sgl1 [1]; 2.00 mol% Erg-glc): 0.6438 mol ergosterol / sec/ mol enzyme and 0.6016 mol ergosterol / sec/ mol enzyme
- Km, Michaelis-Menten best-fit value (C. neoformans Sgl1 [1]): 0.3118 mol%
- Vmax, Michaelis-Menten best-fit value, Turnover (C. neoformans Sgl1 [1]): 0.721 s⁻¹
- KM (C. neoformans Sgl1 [1]): 0.31 ± 0.04 mol%

Structure (SMILES): O=c1ccc2nc3ccc(O)cc3oc-2c1 [resorufin]
- Picomol of resorufin produced (C. neoformans Sgl1 [4]; substrate concentration 0.8 µM): 13.6869 Picomol and 10.2624 Picomol and 15.333 Picomol and 8.2899 Picomol and 7.897 Picomol and 8.1513 Picomol and 7.834 Picomol and 9.766 Picomol
- Picomol of resorufin produced (C. neoformans Sgl1 [4]; substrate concentration 1.6 µM): 22.652 Picomol and 16.8084 Picomol and 22.0089 Picomol and 13.8077 Picomol and 14.311 Picomol and 13.7411 Picomol and 16.5589 Picomol and 17.8661 Picomol
- Picomol of resorufin produced (C. neoformans Sgl1 [4]; substrate concentration 3.125 µM): 38.3651 Picomol and 20.7516 Picomol and 22.1703 Picomol and 24.2149 Picomol and 22.4235 Picomol and 18.9404 Picomol and 21.8512 Picomol and 25.5122 Picomol
- Picomol of resorufin produced (C. neoformans Sgl1 [4]; substrate concentration 6.25 µM): 43.9839 Picomol and 34.2216 Picomol and 50.5101 Picomol and 33.7929 Picomol and 44.5629 Picomol and 40.9973 Picomol and 53.26 Picomol and 50.9019 Picomol
- Picomol of resorufin produced (C. neoformans Sgl1 [4]; substrate concentration 12.5 µM): 71.213 Picomol and 36.0642 Picomol and 41.6688 Picomol and 71.5524 Picomol and 70.9838 Picomol and 75.8794 Picomol and 76.3919 Picomol and 81.7237 Picomol
- Picomol of resorufin produced (C. neoformans Sgl1 [4]; substrate concentration 25 µM): 72.1659 Picomol and 113.232 Picomol and 127.381 Picomol and 122.744 Picomol and 134.032 Picomol and 119.303 Picomol and 123.078 Picomol and 139.365 Picomol
- Picomol of resorufin produced (C. neoformans Sgl1 [4]; substrate concentration 50 µM): 180.011 Picomol and 203.084 Picomol and 186.676 Picomol and 209.238 Picomol and 194.059 Picomol and 207.198 Picomol and 188.267 Picomol and 183.529 Picomol
- Picomol of resorufin produced (C. neoformans Sgl1 [4]; substrate concentration 100 µM): 305.03 Picomol and 313.72 Picomol and 318.728 Picomol and 338.834 Picomol and 336.378 Picomol and 332.942 Picomol and 323.184 Picomol and 353.074 Picomol
